The record followed here is US20260256751A1, “COMBINATION OF BETA-2-ADRENERGIC RECEPTOR AGONISTS AND GLP-1 RECEPTOR AGONISTS FOR USE IN TREATING HYPERGLYCAEMIA” (ATROGI AB, priority 2023, published 2026).

In assay [1] the test system is differentiated L6-myotubes. Nature of the assay: Glucose uptake screen (Biological example 1 of WO 2019/053427). Type of assay: cell-based. Particulars: compound at 10 μM, activity relative to isoproterenol at 10 μM, read-out: Biological example 1 of WO 2019/053427 (GU). In a few lines:
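Rat L6 myoblasts were differentiated into myotubes over 7 days in 2% FBS, then serum-starved overnight. Cells were stimulated with 1×10^−5 M compound plus β2 antagonist ICI-118551 for 1 h 40 min and re-dosed for 20 min in glucose-free medium. Uptake of 50 nM ^3H-2-deoxyglucose over 10 min was counted after NaOH lysis.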

In assay [2] the test system is differentiated L6-myotubes. The assay is described as follows: cAMP production relative to isoprenaline (Biological example 2 of WO 2019/053427). Type of assay: cell-based. Particulars: 0.25 h, compound at 10 μM, activity relative to isoproterenol at 10 μM. The method in brief: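 Differentiated L6 myotubes stimulated 15 min with test compound or isoprenaline, each at final 1×10^−5 M, in HBSS with 1% BSA, 5 mM HEPES, 1 mM IBMX, pH 7.4. cAMP production by the compound expressed relative to that induced by the same concentration of isoprenaline.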
(Changes in cAMP serve as a functional read-out for many G protein-coupled receptors.)

Turning to `CCC[C@H]1CCC[C@H]([C@H](O)c2cc(F)cc(F)c2)N1` [Compound 68, (R)-[(2R,6S)-6-propyl-2-piperidyl](3,5-difluorophenyl)methanol], the Emax at 10 µM in assay [1] was 50 to 75%; in assay [2], less than 25%.

On to `CC(C)(C[C@H]1CC[C@H](O)CC1)NC[C@H](O)c1cccc(F)c1` [Compound 300, (R)-2-{1,1-dimethyl-2-[(1r,4R)-4-hydroxycyclohexyl]ethylamino}-1-(m-fluorophenyl)-1-ethanol], for which the Emax at 10 µM is greater than 75% in assay [1] and less than 25% in assay [2].

Consider `CC12CC(C1)[C@@H]([C@H](O)c1cccc(Cl)c1)N2` [Compound 209, (R)-{(S)-1-methyl-2-azabicyclo[2.1.1]hex-3-yl}(m-chlorophenyl)methanol], for which the Emax at 10 µM in assay [1] is 25 to 50%; in assay [2], less than 25%.

Consider `CC(C)(NC[C@H](O)c1cccc(F)c1)[C@H]1CC[C@H](OCc2ccccc2)CC1` [Compound 279, (R)-1-(m-fluorophenyl)-2-{1-methyl-1-[(1r,4R)-4-(benzyloxy)cyclohexyl]eth-ylamino}-1-ethanol], for which the Emax at 10 µM in assay [1] was 50 to 75%; in assay [2], less than 25%.

Regarding `CCCCNC[C@H](O)c1cccc(F)c1F` [Compound 77, (R)-2-(butylamino)-1-(2,3-difluorophenyl)-1-ethanol], the Emax at 10 µM was greater than 75% in assay [1] and less than 25% in assay [2].

Regarding `CCC[C@H]1CCC[C@H]([C@@H](O)c2ccccc2F)N1` [Compound 106, (S)-[(2R,6S)-6-propyl-2-piperidyl](o-fluorophenyl)methanol], the figures for the Emax at 10 µM in assay [1] and in assay [2] were 25 to 50% and less than 25%, respectively.

As for `CCCCNC[C@H](O)c1ccc(F)c(O)c1` [Compound 85, (R)-2-(butylamino)-1-(4-fluoro-3-hydroxyphenyl)-1-ethanol], the Emax at 10 µM in assay [1] is greater than 75%; in assay [2], less than 25%.

Regarding `CC(C)(NC[C@H](O)c1cccc(F)c1)[C@H]1CC[C@@H](C(=O)O)CC1` [Compound 369, (1S,4s)-8-[(R)-2-(m-fluorophenyl)-2-hydroxyethylamino]-7-hydroxy-p-menthan-7-one], the results for the Emax at 10 µM in assay [1] and in assay [2] were 50 to 75% and less than 25%, respectively.

In the case of `CC(C)(NC[C@H](O)c1cncc(F)c1)[C@H]1CC[C@@H](OCc2ccccc2)CC1` [Compound 282, (R)-1-(5-fluoro-3-pyridyl)-2-{1-methyl-1-[(1s,4S)-4-(benzyloxy)cylcohexyl]eth-ylamino}-1-ethanol], the Emax at 10 µM in assay [1] is 50 to 75%; in assay [2], less than 25%.

For `O[C@H](c1cccc(F)c1)C12CCC(COCc3ccc(Cl)cc3)(CC1)N2` [Compound 396, (R)-(4-{[(p-chlorophenyl)methoxy]methyl}-7-azabicyclo[2.2.1]hept-1-yl)(m-fluorophenyl)methanol], the values for the Emax at 10 µM in assay [1] and in assay [2] were greater than 75% and less than 25%, respectively.

Take `COc1ccc(C[C@H]2CC[C@H]([C@@H](O)c3cncc(F)c3)N2)cc1` [Compound 380, (S)-{(2R,5R)-5-[(p-methoxyphenyl)methyl]-2-pyrrolidinyl}(5-fluoro-3-pyridyl)methanol]: the values for the Emax at 10 µM in assay [1] and in assay [2] were greater than 75% and less than 25%, respectively.

`CCCCNC[C@H](O)c1cccc(O)c1F` [Compound 87, (R)-2-(butylamino)-1-(2-fluoro-3-hydroxyphenyl)-1-ethanol]: the figures for the Emax at 10 µM in assay [1] and in assay [2] were greater than 75% and 25 to 50%, respectively.

In the case of `CCC[C@@H]1CC[C@H]([C@H](O)c2cccc(Cl)c2)N1` [Compound 141, (R)-[(2R,5R)-5-propyl-2-pyrrolidinyl](m-chlorophenyl)methanol], the Emax at 10 µM in assay [1] was 50 to 75%; in assay [2], less than 25%.

With `CC(C)(C[C@H]1CC[C@@H](S(N)(=O)=O)CC1)NC[C@H](O)c1cncc(F)c1` [Compound 519, (1S,4s)-4-{2-[(R)-2-(5-fluoro-3-pyridyl)-2-hydroxyethylamino]-2-methylpropyl}cyclohexanesulfonamide], the Emax at 10 µM is greater than 75% in assay [1] and less than 25% in assay [2].

With `CCC[C@@H]1CC[C@@H]([C@H](O)c2cccc(F)c2)N1` [Compound 132, (R)-[(2S,5R)-5-propyl-2-pyrrolidinyl](m-fluorophenyl)methanol], the Emax at 10 µM in assay [1] is 25 to 50%; in assay [2], less than 25%.

`CC(C)(C[C@H]1CC[C@@H](N)CC1)NC[C@H](O)c1cccc(F)c1` [Compound 456, (R)-2-{1,1-dimethyl-2-[(1s,4S)-4-aminocyclohexyl]ethylamino}-1-(m-fluorophenyl)-1-ethanol]: the Emax at 10 µM in assay [1] is greater than 75%; in assay [2] it was less than 25%.

With `O[C@@H](CNC[C@H]1CC[C@@H](OCc2ccccc2)CC1)c1cncc(F)c1` [Compound 263, (R)-1-(5-fluoro-3-pyridyl)-2-({[(1s,4S)-4-(benzyloxy)cyclohexyl]methyl}amino)-1-ethanol], the Emax at 10 µM in assay [1] was greater than 75%; in assay [2] it was less than 25%.

Regarding `CCCS(=O)(=O)N[C@H]1CC[C@@H](CC(C)(C)NC[C@H](O)c2cccc(F)c2)CC1` [Compound 497, (R)-2-{1,1-dimethyl-2-[(1s,4S)-4-(propylsulfonylamino)cyclohexyl]ethylamino}-1-(m-fluorophenyl)-1-ethanol], the Emax at 10 µM in assay [1] is 50 to 75%; in assay [2], less than 25%.

For the molecule `CC(=O)N[C@H]1CC[C@H](CC(C)(C)NC[C@H](O)c2cccnc2C)CC1` [Compound 434, N-[(1R,4r)-4-{2-[(R)-2-hydroxy-2-(2-methyl-3-pyridyl)ethylamino]-2-methylpropyl}cyclohexyl]acetamide], the Emax at 10 µM in assay [1] was greater than 75%; in assay [2] it was less than 25%.

Consider `CC12CCC([C@@H](O)c3cccc(F)c3)(CC1)N2` [Compound 178, (S)-(m-fluorophenyl)(4-methyl-7-azabicyclo[2.2.1]hept-1-yl)methanol], for which the Emax at 10 µM is 25 to 50% in assay [1] and less than 25% in assay [2].

Turning to `O[C@H](c1cncc(F)c1)C12CCC(COCc3ccc(OC(F)(F)F)cc3)(CC1)N2` [Compound 490, (R)-(5-fluoro-3-pyridyl)(4-{[(p-trifluoromethoxyphenyl)methoxy]methyl}-7-azabicyclo[2.2.1]hept-1-yl)methanol], the Emax at 10 µM in assay [1] was 50 to 75%; in assay [2], less than 25%.

Turning to `CC1(C)CC[C@H]([C@H](O)c2cccc(F)c2)N1` [Compound 110, (R)-[(R)-5,5-dimethyl-2-pyrrolidinyl](m-fluorophenyl)methanol], the Emax at 10 µM in assay [1] is greater than 75%; in assay [2], less than 25%.

For `CCC[C@@H]1CCC[C@H]([C@@H](O)c2cccc(F)c2)N1` [Compound 60, (S)-[(2R,6R)-6-propyl-2-piperidyl](m-fluorophenyl)methanol], the Emax at 10 µM in assay [1] was 25 to 50%; in assay [2], less than 25%.

For the molecule `CC12CC(C1)[C@@H]([C@@H](O)c1cccc(N)c1F)N2` [Compound 242, (S)-{(S)-1-methyl-2-azabicyclo[2.1.1]hex-3-yl}(3-amino-2-fluorophenyl)methanol], the results for the Emax at 10 µM in assay [1] and in assay [2] were 50 to 75% and less than 25%, respectively.

For `CC(=O)N(C)[C@H]1CC[C@@H](CC(C)(C)NC[C@H](O)c2cncc(F)c2)CC1` [Compound 507, N-[(1S,4s)-4-{2-[(R)-2-(5-fluoro-3-pyridyl)-2-hdyroxyethylamino]-2-methylpropyl}cyclohexyl]-n-methylacetamide], the Emax at 10 µM in assay [1] was 50 to 75%; in assay [2], less than 25%.

Turning to `CC1(C)CC[C@H]([C@@H](O)c2cccc(O)c2)N1` [Compound 111, m-{(S)-[(R)-5,5-dimethyl-2-pyrrolidinyl]hydroxymeth-yl}phenol], the Emax at 10 µM in assay [1] is 50 to 75%; in assay [2] it was less than 25%.

`CC12CCC([C@@H](O)c3ccccc3F)(CC1)N2` [Compound 180, (S)-(o-fluorophenyl)(4-methyl-7-azabicyclo[2.2.1]hept-1-yl)methanol]: the results for the Emax at 10 µM in assay [1] and in assay [2] were greater than 75% and less than 25%, respectively.

With `CN([C@H]1CC[C@@H](CC(C)(C)NC[C@H](O)c2cncc(F)c2)CC1)S(C)(=O)=O` [Compound 520, (R)-2-{1,1-dimethyl-2-[(1s,4S)-4-(N-mesyl-N-methylamino)cyclohexyl]ethylamino}-1-(5-fluoro-3-pyridyl)-1-ethanol], the Emax at 10 µM is 50 to 75% in assay [1] and less than 25% in assay [2].

With `CC(C)(C[C@H]1CC[C@H](NC(=O)OC(C)(C)C)CC1)NC[C@H](O)c1cccc(C(F)(F)F)n1` [Compound 459, (1S,4r)-4-(2-{(S)-2-hydroxy-2-[6-(trifluoromethyl)-2-pyridyl]ethylamino}-2-methylpropyl)cyclohexyl 2-methyl-2-propanecabamate], the Emax at 10 µM in assay [1] was greater than 75%; in assay [2] it was less than 25%.

In the case of `COC(=O)[C@H]1CC[C@@H](C(C)(C)NC[C@H](O)c2cccc(F)c2)CC1` [Compound 328, (1S,4s)-8-[(R)-2-(m-fluorophenyl)-2-hydroxyethylamino]-7-methoxy-p-menthan-7-one], the Emax at 10 µM was greater than 75% in assay [1] and less than 25% in assay [2].

Consider `CCC[C@H]1CC[C@H]([C@H](O)c2cccc(O)c2)N1` [Compound 125, m-{(R)-[(2R,5S)-5-propyl-2-pyrrolidinyl]hydroxymeth-yl}phenol], for which the figures for the Emax at 10 µM in assay [1] and in assay [2] were 50 to 75% and less than 25%, respectively.

For `CCCCNCC(O)c1cc(Cl)c(N)c(C(F)(F)F)c1` (stereo not shown) [Compound 32, 1-[4-amino-3-chloro-5-(trifluoromethyl)phenyl]-2-(butylamino)-1-ethanol], the Emax at 10 µM in assay [1] is greater than 75%; in assay [2], 25 to 50%.
